# Assay results: patent US20110143197A1, “ELECTRODE ACTIVE MATERIAL FOR POWER STORAGE DEVICE AND POWER STORAGE DEVICE, AND ELECTRONIC EQUIPMENT AND TRANSPORTATION EQUIPMENT” (priority 2008, published 2011)
# Columns and labels:
# [1] = Solubility in an electrolyte (ultraviolet-visible absorption spectrum and visual inspection), Test Example 1; assay type: physicochemical; details: 5.0 mmol/l in 1.0 mol/L lithium fluoroborate in propylene carbonate
# Protocol: The solubility of the phenanthrenequinone-containing compounds and the phenanthrenequinone-containing polymers obtained in Examples 1 to 10 in an electrolyte was evaluated in the following manner.
# A phenanthrenequinone-containing compound or a phenanthrenequinone-containing polymer as obtained in Examples 1 to 10 was mixed with 20 cc of an electrolyte so as to attain a concentration of 5.0 mmol/l, thereby giving a test liquid. This test liquid was subjected to ultraviolet-visible absorption spectrum measurement to examine the solubility of each compound in the electrolyte. The ultraviolet-visible absorption spectrum measurement was performed under the following measurement conditions: a measurement range of 190 to 900 nm and a reference solution of a liquid electrolyte. A UV-2550 (trade name) manufactured by SHIMADZU CORPORATION was used as the measurement apparatus. A liquid electrolyte prepared by dissolving lithium fluoroborate in a concentration of 1.0 mol/L in propylene carbonate was used as the electrolyte.
# As a comparative example, a solubility test was performed in the same manner as described above using 9,10-phenanthrenequinone.
# [2] = Coin battery charge-discharge test (metal lithium negative electrode), Test Example 3
# Source text: A coin battery as shown in FIG. 5 was fabricated as one example of the power storage device of the present invention. FIG. 5 is a vertical cross-sectional view schematically showing a configuration of a coin battery 1 that is one example of the power storage device of the present invention.
# A positive electrode includes a positive electrode current collector 12 made of an aluminum foil and a positive electrode active material layer 13 formed on the positive electrode current collector 12 and containing the phenanthrenequinone-containing compound (1a). The positive electrode was produced in the same manner as in the electrode production method in Test Example 2. This positive electrode was disposed such that the positive electrode current collector 12 was brought into contact with the inner surface of a case 11, and a separator 14 made of a porous polyethylene sheet was placed on the positive electrode.
# Then, a non-aqueous electrolyte was injected into the case 11. As the non-aqueous electrolyte, an electrolyte prepared by dissolving lithium hexafluorophosphate in a concentration of 1.25 mol/L in a solvent mixture containing ethylene carbonate and ethylmethyl carbonate (weight ratio 1:3) was used. […]
# The charge-discharge capacity was calculated based on the initial discharge capacity of each of the coin batteries. […]
# [3] = Cyclic voltammetry of evaluation battery (electrode properties), Test Example 2; assay type: physicochemical
# Protocol: The electrode properties of the phenanthrenequinone-containing compound (1a) obtained in Example 1 were examined in the following manner. First, in an argon box equipped with a gas purifier, 20 mg of the phenanthrenequinone-containing compound (1a) serving as an electrode active material and 20 mg of acetylene black serving as a conductive auxiliary agent were uniformly mixed under an argon gas atmosphere. To the resultant mixture was added 1 ml of N-methyl-2-pyrrolidone serving as a solvent, and 5 mg of polyvinylidene fluoride serving as a binder was further added thereto, followed by uniform mixing, to prepare a black slurry. The binder was used in order to bond the electrode active material and the conductive auxiliary agent together.
# The slurry thus obtained was applied to the surface of a 20 μm-thick aluminum foil (current collector), and vacuum-dried for 2 hours at room temperature. After drying, a disc having a diameter of 13.5 mm was punched out of the resultant structure to produce an electrode in which an active material layer containing a mixture of the electrode active material, the conductive auxiliary agent, and the binder was formed.
# The electrode thus obtained was used as a working electrode, and metal lithium was used for a counter electrode and a reference electrode. These electrodes were immersed in an electrolyte to fabricate an evaluation battery, and the potential sweeping was performed in a potential range from 2.0 to 4.0 V relative to lithium. The sweeping rate was 0.1 mV/sec. As the electrolyte, a liquid electrolyte prepared by dissolving lithium fluoroborate in a concentration of 1.0 mol/L in a solvent mixture containing propylene carbonate and ethylene carbonate (volume ratio 1:1) was used. FIG. 4 is a cyclic voltammogram of the evaluation battery using the electrode active material of the present invention [phenanthrenequinone-containing compound (1a)].
# [4] = relative to lithium, sweep 2.0 to 4.0 V, 0.1 mV/sec
"reversibility of redox reaction ([3]; cyclic voltammogram, FIG. 4)",dissolution from the electrode ([3]; during potential sweeping in liquid electrolyte),"current peak indicating the oxidation reaction [3, 4]","current peak indicating the second-step reduction reaction [3, 4]","current peak indicating the first-step reduction reaction ([3]; relative to lithium, sweep 2.0 to 4.0 V, 0.1 mV/sec, 1.0 mol/L lithium fluoroborate in propylene carbonate/ethylene carbonate 1:1)",Structure (SMILES),"observation by visual inspection of electrolyte (coloration, dissolution) [1]",absorption peak in ultraviolet-visible absorption spectrum of test liquid (solubility in electrolyte) ([1]; measurement range 190 to 900 nm),appearance of electrolyte when battery disassembled after charging and discharging [2]
–,–,–,–,–,"O=C1C(=O)c2ccccc2-c2ccccc21 [9,10-phenanthrenequinone]","colored in yellow, as a result of the compound being entirely dissolved in the electrolyte",a large absorption peak was observed near 250 to 350 nm,green coloration of the electrolyte
underwent a reversible redox reaction,no dissolution,around 3.5 V,around 2.6 V,around 3.1 V,"O=C1C(=O)c2cc(-c3ccc(-c4ccc5c(c4)C(=O)C(=O)c4ccccc4-5)cc3)ccc2-c2ccccc21 [Compound 1a, 1,4-(9,10-phenanthraquinone)-benzene]",–,–,–
